Broadly, the inhibition is the change of the read-out against control, counted positive when it falls. Usually IC50 stands for the concentration that gives 50% inhibition.

For the test, the target named is human BACE-1 (Homo sapiens, UniProt P56817). Briefly: In Vitro BACE Assay (CEREP, fluorogenic substrate). The note with it: recombinant enzyme; for inhibition at 10 µM: 10 μM test compound, pH 4.5; for IC50: pH 4.5, 60 min at 37° C. It is filed as biochemical. As for the experimental part:
This assay was run by CEREP (Catalog Ref. 761-B, Referred to SOP No. 1C131; ERMOLIEFF, J., LOY, J. A., KOELSCH, G. and TANG, J., Proteolytic activation of recombinant pro-memapsin 2 (pro-BACE) studied with new fluorogenic substrates, Biochemistry, (2000) Vol. 39, p. 12450).
More specifically the assay, run at 50 μL in a 96 well plate, evaluated the effect of test compound on the activity of the human BACE-1 quantified by measuring the formation of Mca-S-E-V-N-L-NH2 from Mca-S-E-V-N-L-D-A-E-F-R-K(Dnp)-R-R—NH2, using a recombinant enzyme.
The test compound, reference compound or water (control) was added to a buffer containing 0.09 M sodium acetate (pH 4.5) and 0.25 μg BACE-1. Compound interference with the fluorimetric detection method due to autofluorescence was then checked by measurements at the wavelengths defined to evaluate the enzyme activity. Thereafter, the reaction was initiated by adding 7.5 μM of the substrate Mca-S-E-V-N-L-D-A-E-F-R-K(Dnp)-R—R—NH2 and the mixture was incubated for 60 min at 37° C. For control basal measurement, the substrate was omitted from the reaction mixture. Immediately after the incubation, the fluorescence intensity emitted by the reaction product Mca-S-E-V-N-L-NH2 was measured at λex=320 nm and λem=405 nm using a microplate reader (Ultra, Tecan). The standard inhibitory reference compound was OM99-2, which was tested in each experiment at several concentrations to obtain an inhibition curve from which its IC50 value was calculated.

Molecules are shown by their SMILES. A value given as a limit tells only on which side of the number the result lay.

Sequence of human BACE-1 (P56817 46-501): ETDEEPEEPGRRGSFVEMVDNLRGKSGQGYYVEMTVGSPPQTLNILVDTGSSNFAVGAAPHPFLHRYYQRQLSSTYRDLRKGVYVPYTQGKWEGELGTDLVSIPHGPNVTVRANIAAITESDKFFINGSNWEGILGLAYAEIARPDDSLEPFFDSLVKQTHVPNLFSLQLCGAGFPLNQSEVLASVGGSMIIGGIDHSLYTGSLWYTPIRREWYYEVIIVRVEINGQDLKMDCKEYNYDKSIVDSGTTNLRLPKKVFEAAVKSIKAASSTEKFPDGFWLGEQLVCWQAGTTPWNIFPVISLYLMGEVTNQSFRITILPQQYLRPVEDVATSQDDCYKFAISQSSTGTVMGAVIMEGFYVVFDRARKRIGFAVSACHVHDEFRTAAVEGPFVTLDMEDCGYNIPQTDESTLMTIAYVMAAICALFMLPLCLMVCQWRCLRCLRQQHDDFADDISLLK

Take `Cc1cc(C)c(CNCc2cccc(Sc3ccc4nc(N)c(CC5CCOCC5)cc4c3)c2)c(C)c1` [Compound 1, 3-(Tetrahydro-pyran-4-ylmethyl)-6-{3-[(2,4,6-trimethyl-benzylamino)-methyl]-phenylsulfanyl}-quinolin-2-ylamine]: the inhibition at 10 µM was found to be 96% and the 50% inhibitory concentration (IC50) came out at 260 nM.
The corresponding values for `Cc1cc(C)c(NCc2cccc(Sc3ccc4nc(N)c(CC5CCOCC5)cc4c3)c2)c(C)c1` [Compound 2] are 94% and 920 nM.
For `Nc1nc2ccc(Sc3cccc(CNCc4c(F)cccc4F)c3)cc2cc1CC1CCOCC1` [Compound 4] the same measures were 97% and 400 nM.
The corresponding values for `Nc1nc2ccc(Sc3cccc(CNCc4ccccn4)c3)cc2cc1CC1CCOCC1` [Compound 5] are 93% and 800 nM.
On to `Cc1ccc(CNCc2cccc(Sc3ccc4nc(N)c(CC5CCOCC5)cc4c3)c2)c(C)c1` [Compound 6], for which the inhibition at 10 µM is 98% and the half-maximal inhibitory concentration (IC50) was 450 nM.
The corresponding values for `COc1ccc(CNCc2cccc(Sc3ccc4nc(N)c(CC5CCOCC5)cc4c3)c2)c(OC)c1` [Compound 7] are 90% and 380 nM.
The corresponding values for `Nc1nc2ccc(Sc3cccc(CNCc4cc(F)ccc4F)c3)cc2cc1CC1CCOCC1` [Compound 8] are 95% and 210 nM.
The corresponding values for `Nc1nc2ccc(Sc3cccc(CNCc4ccc(Cl)cc4Cl)c3)cc2cc1CC1CCOCC1` [Compound 9] are 98% and 240 nM.
`CCOc1ccccc1CNCc1cccc(Sc2ccc3nc(N)c(CC4CCOCC4)cc3c2)c1` [Compound 10]: the inhibition at 10 µM is 95% and the IC50 was determined as 300 nM.
For the compound `Nc1nc2ccc(Sc3cccc(CNCc4ccc(C(F)(F)F)cc4)c3)cc2cc1CC1CCOCC1` [Compound 12], the inhibition at 10 µM was 90% and the IC50 stood at 460 nM.
For `CCCC(NCc1cccc(Sc2ccc3nc(N)c(CC4CCOCC4)cc3c2)c1)C(=O)O` (stereo not drawn) [Compound 13] the same measures were 63% and 2800 nM.
For `Cc1ccc(C)c(COCc2cccc(Sc3ccc4nc(N)c(CC5CCOCC5)cc4c3)c2)c1` [Compound 16] the same measures were 93% and 1200 nM.
The corresponding values for `Nc1nc2ccc(Sc3cccc(CSc4cccc(CC(=O)O)c4)c3)cc2cc1CC1CCOCC1` [Compound 17] are 94% and 330 nM.
Turning to `CCOc1ccccc1CNCc1cccc(Sc2cc3cc(CC4CCOCC4)c(N)nc3cc2F)c1` [Compound 18, 6-{3-[(2-Ethoxy-benzylamino)-methyl]-phenylsulfanyl}-7-fluoro-3-(tetrahydro-pyran-4-ylmethyl)-quinolin-2-ylamine], the inhibition at 10 µM is 95% and the IC50 is 260 nM.
Turning to `CCOc1ccccc1CNCCc1cccc(Sc2ccc3nc(N)c(CC4CCOCC4)cc3c2)c1` [Compound 20], the inhibition at 10 µM was 98% and the IC50 is 140 nM.
The corresponding values for `Nc1nc2ccc(Sc3cccc(CCNCc4ccccn4)c3)cc2cc1CC1CCOCC1` [Compound 21] are 91% and 630 nM.
For the compound `Cc1cc(C)c(CNCc2cccc(Oc3ccc4nc(N)c(CC5CCOCC5)cc4c3)c2)c(C)c1` [Compound (II-a), 3-(Tetrahydro-pyran-4-ylmethyl)-6-{3-[(2,4,6-trimethylbenzylamino)-methyl]-phenoxy}-quinolin-2-ylamine], the inhibition at 10 µM amounted to 98% and the half-inhibitory concentration (IC50) worked out at 1200 nM.
For `Cc1cc(C)c(CNCc2cccc(Oc3ccc4nc(N)c(CCC5CCOCC5)cc4c3)c2)c(C)c1` [Compound (II-b), 3-[2-(Tetrahydro-pyran-4-yl)-ethyl]-6-{3-[(2,4,6-trimethylbenzylamino)-methyl]-phenoxy}-quinolin-2-ylamine] the same measures were 74% and over 10000 nM.

These data come from patent US8076358B2, “6-substituted-thio-2-amino-quinoline derivatives useful as inhibitors of β-secretase (BACE)” (Janssen Pharmaceutica NV, priority 2008, dated 2011).
